Source: ChEMBL document CHEMBL5625205, “3-Methoxy-2-phenylimidazo[1,2-b]pyridazines highly active against Mycobacterium tuberculosis and Mycobacterium marinum” (Eur J Med Chem, 2023)
In brackets after ≈: the same amount, converted by molar mass. Activity calls are given as the source filed them. No cut-off for these calls is given here.

How the values were obtained:
[1] = system: Mycobacterium tuberculosis; test: Antimycobacterial activity against Mycobacterium tuberculosis H37Ra assessed as inhibition of bacterial growth measured for 5 days by luminometer; assay type: functional; conditions: 120 h, time 5 day
[2] = system: Mycobacterium marinum; test: Antimycobacterial activity against Mycobacterium marinum assessed as inhibition of bacterial growth measured for 5 days by luminometer; assay type: functional; conditions: 120 h, time 5 day
[3] = Octanol-water distribution coefficient, logD of the compound at pH 7.4 by HPLC analysis; assay type: physicochemical
[4] = Kinetic solubility of compound in DMSO at pH 2 incubated for 30 mins by laser nephelometry; assay type: physicochemical; conditions: read-out: Kinetic_solubility
[5] = Kinetic solubility of compound in DMSO at pH 6.5 incubated for 30 mins by laser nephelometry; assay type: physicochemical; conditions: read-out: Kinetic_solubility
[6] = Metabolic stability in mouse liver microsomes assessed as half life incubated for 60 mins in presence of NADPH; assay type: ADME, Microsome
[7] = Metabolic stability in mouse liver microsomes assessed as intrinsic clearance incubated for 60 mins in presence of NADPH; assay type: ADME, Microsome; conditions: read-out: CLH
[8] = system: Mycobacterium tuberculosis; test: Antimycobacterial activity against Mycobacterium tuberculosis H37Ra infected in mouse assessed as reduction in relative light unit in lung at 30 to 300 mg/kg,po administrated once daily for 5 days; assay type: functional, organism-based; conditions: dose 30-300 mg/kg, time 5.0 day

| SMILES | MIC90 [1] | MIC90 [2] | further results |
| --- | --- | --- | --- |
| COc1cccc(CSc2ccc3nc(-c4ccc(Cl)cc4)c(OC)n3n2)c1 | 9.71 µM (≈ 4 µg/mL) | 3.03 µM (≈ 1.25 µg/mL) |  |
| COc1c(-c2ccc(Cl)cc2)nc2ccc(N(C)Cc3ccccc3)nn12 | 6.6 µM (≈ 2.5 µg/mL) | 6.6 µM (≈ 2.5 µg/mL) |  |
| COc1c(-c2ccccc2F)nc2ccc(N(C)Cc3ccccc3)nn12 | 0.69 µM (≈ 0.25 µg/mL) | 0.69 µM (≈ 0.25 µg/mL) | logD [3]: 4.5; solubility kinetic at 0.5 h [4]: 25 µg/mL (≈ 69 µM); solubility kinetic at 0.5 h [5]: < 1.6 µg/mL; half-life [6]: 4 min; microsomal CLint [7]: 405 µL/min/mg; Activity [8]: inactive |
| CCOc1c(-c2ccccc2)nc2ccc(SCc3cccc(OC)c3)nn12 | 2.55 µM (≈ 0.998 µg/mL) | 1.28 µM (≈ 0.501 µg/mL) |  |
| COc1cccc(CNc2ccc3nc(-c4ccccc4)c(OC)n3n2)c1 | 6.94 µM (≈ 2.5 µg/mL) | 6.94 µM (≈ 2.5 µg/mL) |  |
| COc1c(Cc2ccccc2)nc2ccc(SCc3cccc([N+](=O)[O-])c3)nn12 | > 245 µM | 24.6 µM (≈ 10 µg/mL) |  |
| COc1cccc(CNc2ccc3nc(-c4cccc(C(F)(F)F)c4)c(OC)n3n2)c1 | 23.3 µM (≈ 9.98 µg/mL) | 9.34 µM (≈ 4 µg/mL) |  |
| COc1c(-c2ccccc2)nc2ccc(SCc3cc(C)on3)nn12 | 284 µM (≈ 100 µg/mL) | 284 µM (≈ 100 µg/mL) |  |
| COc1c(-c2ccccc2)nc2ccc(SC)nn12 | 18.4 µM (≈ 4.99 µg/mL) | 36.9 µM (≈ 10 µg/mL) |  |
| COc1cccc(CNc2ccc3nc(-c4ccc(C(F)(F)F)cc4)c(OC)n3n2)c1 | 11.7 µM (≈ 5.01 µg/mL) | 23.3 µM (≈ 9.98 µg/mL) |  |
| CN(Cc1ccccc1)c1ccc2nc(-c3ccccc3F)c(O)n2n1 | 144 µM (≈ 50.2 µg/mL) | 287 µM (≈ 100 µg/mL) |  |
| COc1c(-c2ccccc2)nc2ccc(SCc3nc4ccccc4n3C)nn12 | 24.9 µM (≈ 10 µg/mL) | 250 µM (≈ 100 µg/mL) |  |
| COc1cccc(CSc2ccc3nc(-c4cccc([N+](=O)[O-])c4)c(OC)n3n2)c1 | > 230 µM | > 230 µM |  |
| CN(C)Cc1c(-c2ccccc2)nc2ccc(SCc3ccccc3)nn12 | 6.68 µM (≈ 2.5 µg/mL) | 13.4 µM (≈ 5.02 µg/mL) |  |
| COc1c(-c2ccc(F)cc2)nc2ccc(N(C)Cc3ccccc3)nn12 | 1.38 µM (≈ 0.5 µg/mL) | 1.38 µM (≈ 0.5 µg/mL) |  |
| N#Cc1c(-c2ccccc2)nc2ccc(OCc3ccccc3)nn12 | > 300 µM | > 300 µM |  |
| COc1cccc(CNc2ccc3nc(-c4cccc([N+](=O)[O-])c4)c(OC)n3n2)c1 | > 240 µM | > 240 µM |  |
| COc1c(-c2ccccc2)nc2ccc(SCc3ccccc3)nn12 | 1.44 µM (≈ 0.5 µg/mL) | 0.72 µM (≈ 0.25 µg/mL) |  |
| COc1cccc(CNc2ccc3nc(-c4cccc(F)c4)c(OC)n3n2)c1 | 52.9 µM (≈ 20 µg/mL) | 26.4 µM (≈ 9.99 µg/mL) |  |

| SMILES | MIC90 [1] | MIC90 [2] | further results |
| --- | --- | --- | --- |
| COc1cccc(CSc2ccc3nc(-c4ccccc4F)c(OC)n3n2)c1 | 1.26 µM (≈ 0.498 µg/mL) | 0.15 µM (≈ 0.0593 µg/mL) | Activity [8]: inactive |
| COc1c(-c2cccc([N+](=O)[O-])c2)nc2ccc(N(C)Cc3ccccc3)nn12 | > 250 µM | > 250 µM |  |
| Cc1c(-c2ccccc2)nc2ccc(OCc3ccccc3)nn12 | 317 µM (≈ 100 µg/mL) | 317 µM (≈ 100 µg/mL) |  |
| COc1c(-c2ccccc2)nc2ccc(N(C)Cc3ccccc3)nn12 | 2.9 µM (≈ 0.999 µg/mL) | 1.45 µM (≈ 0.499 µg/mL) |  |
| COCCOc1c(-c2ccccc2)nc2ccc(SCc3cccc(OC)c3)nn12 | 29.7 µM (≈ 12.5 µg/mL) | 119 µM (≈ 50.2 µg/mL) |  |
| O=c1oc2ccccc2c2nc3ccc(SCc4ccccc4)nn3c12 | 278 µM (≈ 99.9 µg/mL) | 278 µM (≈ 99.9 µg/mL) |  |
| c1ccc(COc2ccc3nc(-c4ccccc4)cn3n2)cc1 | 332 µM (≈ 100 µg/mL) | > 330 µM |  |
| COc1cccc(CSc2ccc3nc(-c4ccc(OC)c(OC)c4)c(OC)n3n2)c1 | > 220 µM | > 220 µM |  |
| COc1c(-c2ccccc2)nc2ccc(Sc3ccccc3)nn12 | 150 µM (≈ 50 µg/mL) |  |  |
| COc1cccc(CSc2ccc3nc(-c4ccc(F)cc4F)c(CN(C)C)n3n2)c1 | 227 µM (≈ 100 µg/mL) | 227 µM (≈ 100 µg/mL) |  |
| COc1cccc(CSc2ccc3nc(-c4ccc(F)cc4F)cn3n2)c1 | 261 µM (≈ 100 µg/mL) | 261 µM (≈ 100 µg/mL) |  |
| COc1cccc(COc2ccc3nc(-c4cccc(C(F)(F)F)c4)c(OC)n3n2)c1 | > 230 µM |  |  |
| COc1ccc(-c2nc3ccc(SCc4ccccc4)nn3c2OC)cc1 | > 260 µM |  |  |
| COc1c(-c2ccccc2)nc2ccc(SCc3ccccc3Cl)nn12 | > 260 µM |  |  |
| COc1cccc(COc2ccc3nc(-c4ccc(C(F)(F)F)cc4)c(OC)n3n2)c1 | > 230 µM | > 230 µM |  |
| COc1cccc(CSc2ccc3nc(-c4ccc(F)cc4)c(OC)n3n2)c1 | 0.63 µM (≈ 0.249 µg/mL) | 0.63 µM (≈ 0.249 µg/mL) | logD [3]: 4.9; solubility kinetic at 0.5 h [4]: 1.6 µg/mL (≈ 4.05 µM); solubility kinetic at 0.5 h [5]: < 1.6 µg/mL; half-life [6]: < 2 min; microsomal CLint [7]: > 866 µL/min/mg; Activity [8]: inactive |
| Brc1c(-c2ccccc2)nc2ccc(OCc3ccccc3)nn12 | > 260 µM | > 260 µM |  |
| CCOc1c(-c2ccccc2F)nc2ccc(SCc3cccc(OC)c3)nn12 | 3.05 µM (≈ 1.25 µg/mL) | 3.05 µM (≈ 1.25 µg/mL) |  |
| COc1c(-c2cccc(N)c2)nc2ccc(N(C)Cc3ccccc3)nn12 | 34.8 µM (≈ 12.5 µg/mL) | 13.9 µM (≈ 5 µg/mL) |  |
